Test results: PubChem BioAssay (NCI)
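Interpolation was linear, between the two tested concentrations surrounding the appropriate level; five concentrations were tested over 48 hours in 96-well plates. Here, GI50 denotes the concentration required for 50% inhibition of growth. The concentration for full growth arrest is given as TGI.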

Tests used:
Assay in all cases: NCI tumour cell line growth inhibition, 48 h
[1] = system: LOX IMVI melanoma
[2] = system: HOP-92 NSCLC
[3] = system: HCT-15 colon
[4] = system: DU-145 prostate
[5] = system: ACHN renal
[6] = system: NCI-H522 lung
[7] = system: M14 melanoma
[8] = system: SF-268 CNS
[9] = system: T-47D breast
[10] = system: NCI/ADR-RES ovarian
[11] = system: U251 CNS
[12] = system: MDA-MB-435
[13] = system: RXF 393 renal
[14] = system: SK-MEL-2 melanoma
[15] = system: SW-620 colon
[16] = system: BT-549 breast
[17] = system: SK-MEL-5 melanoma
[18] = system: UO-31 renal
[19] = system: RPMI-8226 leukemia
[20] = system: SNB-19 CNS
[21] = system: MALME-3M melanoma
[22] = system: UACC-62 melanoma
[23] = system: COLO 205 colon
[24] = system: MDA-MB-231 breast
[25] = system: SK-MEL-28 melanoma
[26] = system: CCRF-CEM leukemia
[27] = system: SK-OV-3 ovarian
[28] = system: NCI-H460 lung
[29] = system: IGROV1 ovarian
[30] = system: MOLT-4 leukemia
[31] = system: OVCAR-8 ovarian
[32] = system: K-562 leukemia
[33] = system: HS 578T breast
[34] = system: NCI-H226 lung
[35] = system: OVCAR-5 ovarian
[36] = system: 786-0 renal
[37] = system: TK-10 renal
[38] = system: UACC-257 melanoma
[39] = system: HL-60(TB) leukemia
[40] = system: PC-3 prostate
[41] = system: A498 renal
[42] = system: OVCAR-4 ovarian
[43] = system: HOP-62 NSCLC
[44] = system: A549 NSCLC
[45] = system: KM12 colon
[46] = system: CAKI-1 renal
[47] = system: SN12C renal
[48] = system: HCC-2998 colon
[49] = system: SF-539 CNS
[50] = system: HCT-116 colon
[51] = system: NCI-H23 lung
[52] = system: HT29 colon
[53] = system: MCF7 breast
[54] = system: SNB-75 CNS
[55] = system: OVCAR-3 ovarian
[56] = system: EKVX NSCLC
[57] = system: SF-295 CNS
[58] = system: SR leukemia

For c1ccc2c(c1)ccc1c3ccccc3ccc21, the GI50 [1] was over 50 µM, the TGI [1] was over 50 µM and the GI50 [2] was over 50 µM. The TGI [2] was over 50 µM, the GI50 [3] was over 50 µM and the TGI [3] was over 50 µM. The GI50 [4] was over 50 µM, the TGI [4] was over 50 µM and the GI50 [5] was over 50 µM. The TGI [5] was over 50 µM, the GI50 [6] was over 50 µM and the TGI [6] was over 50 µM. It also gave a GI50 [7] of over 50 µM, a TGI [7] of over 50 µM and a GI50 [8] of over 50 µM. For the same compound, the TGI [8] was over 50 µM, the GI50 [9] was over 50 µM and the TGI [9] was over 50 µM. The GI50 [10] was over 50 µM, the TGI [10] was over 50 µM and the GI50 [11] was over 50 µM. The TGI [11] was over 50 µM, the GI50 [12] was over 50 µM and the TGI [12] was over 50 µM. It also gave a GI50 [13] of over 50 µM, a TGI [13] of over 50 µM and a GI50 [14] of over 50 µM. It also gave a TGI [14] of over 50 µM, a GI50 [15] of over 50 µM and a TGI [15] of over 50 µM. The GI50 [16] was over 50 µM, the TGI [16] was over 50 µM and the GI50 [17] was over 50 µM. It also gave a TGI [17] of over 50 µM, a GI50 [18] of over 50 µM and a TGI [18] of over 50 µM. For the same compound, the GI50 [19] was over 50 µM, the TGI [19] was over 50 µM and the GI50 [20] was over 50 µM. For the same compound, the TGI [20] was over 50 µM, the GI50 [21] was over 50 µM and the TGI [21] was over 50 µM. For the same compound, the GI50 [22] was over 50 µM, the TGI [22] was over 50 µM and the GI50 [23] was over 50 µM. The TGI [23] was over 50 µM, the GI50 [24] was over 50 µM and the TGI [24] was over 50 µM. For the same compound, the GI50 [25] was over 50 µM, the TGI [25] was over 50 µM and the GI50 [26] was over 50 µM. It also gave a TGI [26] of over 50 µM, a GI50 [27] of over 50 µM and a TGI [27] of over 50 µM. It also gave a GI50 [28] of over 50 µM, a TGI [28] of over 50 µM and a GI50 [29] of over 50 µM. It also gave a TGI [29] of over 50 µM, a GI50 [30] of over 50 µM and a TGI [30] of over 50 µM. For the same compound, the GI50 [31] was over 50 µM, the TGI [31] was over 50 µM and the GI50 [32] was over 50 µM. The TGI [32] was over 50 µM, the GI50 [33] was over 50 µM and the TGI [33] was over 50 µM. For the same compound, the GI50 [34] was over 50 µM, the TGI [34] was over 50 µM and the GI50 [35] was over 50 µM. The TGI [35] was over 50 µM, the GI50 [36] was over 50 µM and the TGI [36] was over 50 µM. It also gave a GI50 [37] of over 50 µM, a TGI [37] of over 50 µM and a GI50 [38] of over 50 µM. The TGI [38] was over 50 µM, the GI50 [39] was over 50 µM and the TGI [39] was over 50 µM. It also gave a GI50 [40] of over 50 µM, a TGI [40] of over 50 µM and a GI50 [41] of over 50 µM. It also gave a TGI [41] of over 50 µM, a GI50 [42] of over 50 µM and a TGI [42] of over 50 µM. The GI50 [43] was over 50 µM, the TGI [43] was over 50 µM and the GI50 [44] was over 50 µM. The TGI [44] was over 50 µM, the GI50 [45] was over 50 µM and the TGI [45] was over 50 µM. The GI50 [46] was over 50 µM, the TGI [46] was over 50 µM and the GI50 [47] was over 50 µM. For the same compound, the TGI [47] was over 50 µM, the GI50 [48] was over 50 µM and the TGI [48] was over 50 µM. For the same compound, the GI50 [49] was over 50 µM, the TGI [49] was over 50 µM and the GI50 [50] was over 50 µM. The TGI [50] was over 50 µM, the GI50 [51] was over 50 µM and the TGI [51] was over 50 µM. For the same compound, the GI50 [52] was over 50 µM, the TGI [52] was over 50 µM and the GI50 [53] was over 50 µM. For the same compound, the TGI [53] was over 50 µM, the GI50 [54] was over 50 µM and the TGI [54] was over 50 µM. The GI50 [55] was over 50 µM and the TGI [55] was over 50 µM.
CC(C)(C)n1cc(-c2ccnc(NCCNS(=O)(=O)c3cccc4ccccc34)c2)c(-c2cccc(F)c2)n1 was tested, and the GI50 [2] was 2.74 µM, the TGI [2] was 21.2 µM and the GI50 [3] was 6 µM. It also gave a TGI [3] of 24.9 µM, a GI50 [4] of 26.7 µM and a TGI [4] of over 100 µM. It also gave a GI50 [5] of 18.9 µM, a TGI [5] of 49 µM and a GI50 [6] of 15.5 µM. For the same compound, the TGI [6] was 44.5 µM, the GI50 [7] was 11.7 µM and the TGI [7] was 48.2 µM. The GI50 [8] was 40.3 µM, the TGI [8] was over 100 µM and the GI50 [9] was 4.22 µM. For the same compound, the TGI [9] was 47.8 µM, the GI50 [10] was 21.4 µM and the TGI [10] was over 100 µM. The GI50 [11] was 12.4 µM, the TGI [11] was 33.4 µM and the GI50 [56] was 17.2 µM. The TGI [56] was over 100 µM, the GI50 [12] was 19.1 µM and the TGI [12] was 38.7 µM. It also gave a GI50 [13] of 12.4 µM, a TGI [13] of 30.2 µM and a GI50 [14] of 21.4 µM. The TGI [14] was 57.9 µM, the GI50 [15] was 16.6 µM and the TGI [15] was 42.3 µM. The GI50 [16] was 10.6 µM, the TGI [16] was 26.7 µM and the GI50 [17] was 11.9 µM. The TGI [17] was 24.9 µM, the GI50 [18] was 10.4 µM and the TGI [18] was 59.8 µM. The GI50 [19] was 6.2 µM, the TGI [19] was 44.9 µM and the GI50 [20] was 34.9 µM. For the same compound, the TGI [20] was over 100 µM, the GI50 [21] was 15.3 µM and the TGI [21] was 36.8 µM. For the same compound, the GI50 [22] was 17.3 µM, the TGI [22] was 47.7 µM and the GI50 [23] was 8.98 µM. It also gave a TGI [23] of 43.3 µM, a GI50 [24] of 24.2 µM and a TGI [24] of over 100 µM. The GI50 [25] was 16.6 µM, the TGI [25] was 37 µM and the GI50 [26] was 8.38 µM. For the same compound, the TGI [26] was over 100 µM, the GI50 [27] was 26 µM and the TGI [27] was over 100 µM. For the same compound, the GI50 [57] was 22.3 µM, the TGI [57] was 57.3 µM and the GI50 [28] was 20 µM. The TGI [28] was 56.7 µM, the GI50 [29] was 18.6 µM and the TGI [29] was 64.3 µM. The GI50 [30] was 10 µM, the TGI [30] was over 100 µM and the GI50 [31] was 26.7 µM. For the same compound, the TGI [31] was over 100 µM, the GI50 [32] was 5.9 µM and the TGI [32] was 82.2 µM. The GI50 [33] was 16.7 µM, the TGI [33] was 46 µM and the GI50 [34] was 12.2 µM. For the same compound, the TGI [34] was 43.4 µM, the GI50 [35] was 23.7 µM and the TGI [35] was 69.9 µM. The GI50 [36] was 2.44 µM, the TGI [36] was 6.75 µM and the GI50 [37] was 18.3 µM. For the same compound, the TGI [37] was 40.5 µM, the GI50 [38] was 25 µM and the TGI [38] was 86.7 µM. For the same compound, the GI50 [39] was 17.5 µM, the TGI [39] was 44.5 µM and the GI50 [40] was 4.71 µM. It also gave a TGI [40] of 54.4 µM, a GI50 [42] of 14.6 µM and a TGI [42] of 53.7 µM. It also gave a GI50 [43] of 17.2 µM, a TGI [43] of 46.3 µM and a GI50 [44] of 16.7 µM. It also gave a TGI [44] of 76.6 µM, a GI50 [45] of 17.9 µM and a TGI [45] of 55.8 µM. It also gave a GI50 [58] of 9.27 µM, a TGI [58] of over 100 µM and a GI50 [46] of 16 µM. It also gave a TGI [46] of 30.8 µM, a GI50 [47] of 13.7 µM and a TGI [47] of 29 µM. For the same compound, the GI50 [48] was 13.2 µM, the TGI [48] was 37.9 µM and the GI50 [49] was 16.1 µM. It also gave a TGI [49] of 31.7 µM, a GI50 [50] of 4.62 µM and a TGI [50] of 19.2 µM. The GI50 [51] was 14.9 µM, the TGI [51] was 59.1 µM and the GI50 [52] was 5.25 µM. It also gave a TGI [52] of 23.9 µM, a GI50 [53] of 16.3 µM and a TGI [53] of 59.6 µM. For the same compound, the GI50 [55] was 15.4 µM and the TGI [55] was 30.4 µM.
